Where two headings read alike, the source gives them in different places.
Key:
[1] = design: species or system male Sprague Dawley rats; conditions: rat, in vivo, 0.25 mg/kg, 300 min
Description: (§1) Two animal species were used, i.e., rats and rabbits.
(§2) Monosialotetrahexosylganglioside GM1 labeled on the sphingosine moiety according to the method of Tettamanti et al. (in "Gangliosides in Neurological and Neuromuscular Function, Development and Repair" Eds. M. M. Rapport, A. Gorio, Raven Press. (N.Y.) 1981, p. 225-240) was used as a representative ganglioside molecule.
(§3) The ganglioside mixture used was similar to the natural mixture that is obtained by extraction and purification from bovine cerebral cortex. The mixture was made up by compounding the single ganglioside fractions in the following percent proportions:
(§4) The monosialotetrahexosylganglioside GM1 contained a ^3 H-label on sphingosine as specified under item (a) as a tracer for the mixture.
(§5) Labeled inner ester derivative of monosialoganglioside was obtained from monosialoganglioside labeled on the sphingosine moiety according to the method cited under item (a). The inner esterification procedure according to the method described in applicant's co-pending U.S. application Ser. No. 290,106, filed on Aug. 4, 1981, was used for this labeled ganglioside to obtain the labeled inner ester derivative. […]
(§6) After treatment the animals were housed in metabolic cages. […] The total radioactivity of the samples was counted by means of a Tricarb scintillator (Packard). […]

[2] = design: species or system male New Zealand rabbits; conditions: rabbit, in vivo, 0.25 mg/kg, 300 min
Description: as §1, §2, §3, §4, §5, §6

[3] = design: species or system male Sprague Dawley rats; conditions: rat, in vivo, 0.25 mg/kg, 300 min; remark: listed apart in the source
Description: as §1, §2, §3, §4
as §5, with “Aug.” for “Aug. 4, 1981, was used for this labeled ganglioside to obtain the labeled inner ester derivative.”
After treatment the animals were housed in metabolic cages. […] The total radioactivity of the samples was counted by means of a Tricarb scintillator (Packard).
(§7) However, increased pulmonary absorption of the compounds after nebulization of the aqueous solutions was recorded (See Table 2).

[4] = design: species or system male New Zealand rabbits; conditions: rabbit, in vivo, 0.25 mg/kg, 300 min; remark: listed apart in the source
Description: as §1, §2, §3, §4
as §5, with “Aug.” for “Aug. 4, 1981, was used for this labeled ganglioside to obtain the labeled inner ester derivative.”
as §6, §7

[5] = design: species or system male Sprague Dawley rats; conditions: rat, in vivo, 0.25 mg/kg, 300 min; remark: listed apart in the source
Description: as §1, §2, §3, §4, §5, §6

[6] = design: species or system male New Zealand rabbits; conditions: rabbit, in vivo, 0.25 mg/kg, 300 min; remark: listed apart in the source
Description: as §1, §2, §3, §4, §5, §6

| Molecule | Bioavailability (Intramuscular route = 100) [1] | Bioavailability (Intramuscular route = 100) [2] | Bioavailability (Intramuscular route = 100) [3] | Bioavailability (Intramuscular route = 100) [4] | Bioavailability (Intramuscular route = 100) [5] | Bioavailability (Intramuscular route = 100) [6] |
| --- | --- | --- | --- | --- | --- | --- |
| CCCCCCCCCCCCC/C=C/[C@@H](O)[C@H](CO[C@@H]1O[C@H](CO)[C@@H](O[C@@H]2O[C@H](CO)[C@H](O[C@@H]3O[C@H](CO)[C@H](O)[C@H](O[C@@H]4O[C@H](CO)[C@H](O)[C@H](O)[C@H]4O)[C@H]3NC(C)=O)[C@@H]3O[C@@]4(C[C@H](O)[C@@H](NC(C)=O)[C@H]([C@H](O)[C@H](O)CO)O4)C(=O)O[C@@H]23)[C@H](O)[C@H]1O)NC(=O)CCCCCCCCCCCCCCCCC [Monosialoganglioside inner ester] | 12% | 11.5% | 35% | 33.5% | 80 | 85 |
| Monosialotetrahexosylganglioside GM1 [Monosialoganglioside] | 10.5% | 12% | 34% | 32% | 85 | 87 |

From patent publication US4639437A, “Kit or device and method for administering gangliosides and derivatives thereof by inhalation and pharmaceutical compositions suitable therefor” (Fidia, S.p.A., priority 1984, dated 1987)
